Reference: PMC3391913, “Cellular Immune Reactions of the Sunn Pest, Eurygaster integriceps, to the Entomopathogenic Fungus, Beauveria bassiana and Its Secondary Metabolites” (Journal of Insect Science, 2011)

System: T1, phenoloxidase (PO)
T1 construct: gene prophenoloxidase; native, unpurified hemocyte lysate supernatant of adults; bands of 46 and 59 kDa on native PAGE
Experiment: spectrophotometric phenoloxidase assay at […] nm, fit in SigmaPlot
Type: biochemical, Eurygaster integriceps
Settings: control insects without fungal metabolite; hemocyte lysate; 3-10 mM substrate; phosphate buffer pH 6.5; 30 °C

A Km of 1630 µM was found for `N[C@@H](Cc1ccc(O)c(O)c1)C(=O)O` [L-dihydroxyphenylalanine] in this work.
